Experimental data published in US6747027B1, “Thiol sulfonamide metalloprotease inhibitors” (Pharmacia Corporation, priority 1996, dated 2004).

Tests used:
recombinant human MMP-1 = molecular target: T1, recombinant human MMP-1 (Homo sapiens, UniProt P03956); test: In vitro metalloprotease inhibition, fluorogenic peptide assay (MMP-1); type: biochemical; details: recombinant human MMP-1, APMA activated; fluorogenic MCA peptide substrate 4 uM; pH 7.5, room temperature
T1 construct: made in house; host or cells: transfected HT-1080 cells (provided by Dr. Howard Welgus, Washington University)
T1 sequence (P03956 100-469): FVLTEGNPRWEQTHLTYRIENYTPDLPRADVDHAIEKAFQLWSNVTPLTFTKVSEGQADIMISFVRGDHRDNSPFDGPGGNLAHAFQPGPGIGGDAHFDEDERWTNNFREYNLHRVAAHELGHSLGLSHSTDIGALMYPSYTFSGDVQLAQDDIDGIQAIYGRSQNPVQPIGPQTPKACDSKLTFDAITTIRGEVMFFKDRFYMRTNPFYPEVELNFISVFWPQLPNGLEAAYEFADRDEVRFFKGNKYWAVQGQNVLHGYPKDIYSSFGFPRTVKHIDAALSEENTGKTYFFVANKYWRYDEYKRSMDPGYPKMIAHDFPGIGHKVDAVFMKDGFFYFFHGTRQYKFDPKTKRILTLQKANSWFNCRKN
Procedure: (§1) Certain of the compounds prepared in the manner described in Examples 1 to 223 were tested for activity by an in vitro assay. Following the procedures of Knight et al., FEBS Lett. 296(3):263 (1992). Briefly, 4-aminophenylmercuric acetate (APMA) or trypsin activated MMPs were incubated with various concentrations of the inhibitor compound at room temperature for 5 minutes (0.02% 2-mercapto-ethanol added to buffer for thiol compounds with 5 minutes or overnight incubation). More specifically, recombinant human MMP-13 and MMP-1 enzymes were prepared in laboratories of the inventors' employer. MMP-13 was expressed in baculovirus as a proenzyme, and purified first over a heparin agarose column and then over a chelating zinc chloride column. The proenzyme was activated by APMA for use in the assay. MMP-1 expressed in transfected HT-1080 was provided by Dr. Howard Welgus of Washington University, St. Louis, Mo. The enzyme was also activated using APMA and was then purified over a hydroxamic acid column.
(§2) The enzyme substrate is a methoxycoumarin-containing polypeptide having the following sequence:
(§3) MCA-ProLeuGlyLeuDpaAlaArgNH^2, wherein MCA is methoxycoumarin and Dpa is 3-(2,4-dinitrophenyl)-L-2,3-diaminopropionyl alanine. This substrate is commercially available from Baychem as product M-1895.
(§4) The buffer used for assays contained 100 mM Tris-HCl, 100 mM NaCl, 10 mM CaCl2 and 0.05 percent polyethyleneglycol(23) lauryl ether at a pH value of 7.5. Assays were carried out at room temperature, and dimethyl sulfoxide (DMSO) at a final concentration of 1 percent was used to dissolve inhibitor compound.
(§5) The assayed inhibitor compound in DMSO/buffer solution was compared to an equal amount of DMSO/buffer with no inhibitor as control using microfluor™ white plates (Dynatech). The inhibitor or control solution was maintained in the plate for 10 minutes and the substrate was added to provide a final concentration of 4 uM.
(§6) In the absence of inhibitor activity, a fluorogenic peptide is cleaved at the gly-leu peptide bond, separating the highly fluorogenic peptide from a 2.4-dinitrophenyl quencher, resulting in an increase of fluorescence intensity (excitation at 328 nm/emmision at 415 nm). Inhibition was measured as a reduction in fluorescent intensity as a function of inhibitor concentration, using a Perkin Elmer L550 plate reader. The IC50 values were calculated from those values. The results are set forth in the Inhibition Table below, reported in terms of IC50 to three significant figures.

recombinant human MMP-13 = molecular target: T2, recombinant human MMP-13 (Homo sapiens, UniProt P45452); test: In vitro metalloprotease inhibition, fluorogenic peptide assay (MMP-13); type: biochemical; details: recombinant human MMP-13, APMA activated; fluorogenic MCA peptide substrate 4 uM; pH 7.5, room temperature
T2 construct: made in house
Procedure: as §1, §2, §3, §4, §5, §6

Row | Molecule | IC50 (recombinant human MMP-1) | IC50 (recombinant human MMP-13)
1 | CCCCOc1ccc(S(=O)(=O)N(C)[C@H](C)CS)cc1 [Example 22C, N-(2-mercapto-1R-methylethyl)-N-methyl-4-(n-butoxybenzene)sulfonamide] | 3.4 µM | 0.013 µM
2 | CCCCOc1ccc(S(=O)(=O)N(CCN2CCOCC2)[C@H](C)CS)cc1 [Example 45C, N-(2-Mercapto-1R-methylethyl)-N-[2-(4-morpholino)ethyl]-4-(n-butoxy)benzenesulfonamide] | 3.2 µM | 0.003 µM
3 | N-(2-mercapto-1R-methylethyl)-4-n-pentyl)benzenesulfonamide [Example 71] | > 10 µM | 0.04 µM
4 | NC(=O)[C@H](CSSC[C@@H](C(N)=O)N(CCN1CCOCC1)S(=O)(=O)c1ccc(Oc2ccccc2)cc1)N(CCN1CCOCC1)S(=O)(=O)c1ccc(Oc2ccccc2)cc1 [Example 213] | > 10 µM | 0.0015 µM
5 | N-(2-Mercapto-1R-methylethyl)-N-[2-(4-morpholino)ethyl]-4-(thiophenyl)benzenesulfonamide Hydrochloride [Example 91D] | > 10 µM | 0.0007 µM
6 | COc1ccc(S(=O)(=O)N(Cc2ccccc2)C(CSC(C)=O)C(C)C)cc1 (stereo not drawn) [Example 33C] | > 10 µM | 0.345 µM
7 | CCCCCOc1ccc(S(=O)(=O)N(C)[C@H](C)CS)cc1 [Example 39C, N-(2-Mercapto-1R-methylethyl)-N-methyl-4-(n-pentyloxy)benzenesulfonamide] | > 10 µM | 0.0215 µM
8 | COc1ccc(S(=O)(=O)N[C@H](C)CS)cc1OC [Example 100] | > 10 µM | > 10 µM
9 | C[C@H](CS)N(C)S(=O)(=O)c1ccc(-c2cccc(C(F)(F)F)c2)cc1 [Example 125] | > 10 µM | 0.77 µM
10 | COc1ccc(S(=O)(=O)N(C)Cc2ccccc2S)cc1 [Example 44, N-[(2-Mercaptophenyl)methyl]-N-methyl-4-methoxybenzenesulfonamide] | > 10 µM | 0.4 µM
11 | Cc1ccccc1-c1ccc(S(=O)(=O)N(C)[C@H](C)CS)cc1 [Example 122] | > 10 µM | 4.25 µM
12 | CCCCOc1ccc(S(=O)(=O)N[C@@H](CS)C(=O)N[C@@H](Cc2ccccc2)C(N)=O)cc1 [Example 186] | > 10 µM | 1.1 µM
13 | CCCCOc1ccc(S(=O)(=O)N(C)[C@H](C)CSSC[C@@H](C)N(C)S(=O)(=O)c2ccc(OCCCC)cc2)cc1 [Example 18] | > 10 µM | 0.39 µM
14 | C[C@H](CS)N(Cc1ccccc1)S(=O)(=O)CCCSc1ccccc1 [Example 51, N-(2-Mercapto-1R-methylethyl)-N-benzyl(3-thiophenylpropyl)sulphonamide] | > 10 µM | 0.34 µM
15 | CCCCOc1ccc(S(=O)(=O)N[C@@H](CS)C(=O)O)cc1 [Example 181] | > 10 µM | 3 µM
16 | CCCCOc1ccc(S(=O)(=O)N(CCN2CCCCC2)[C@H](C)CS)cc1 [Example 46, N-(2-Mercapto-1R-methylethyl)-N-[2-(1-piperidino)ethyl]-4-(n-butoxy)benzenesulfonamide] | 3.5 µM | 0.004 µM
17 | CCCCOc1ccc(S(=O)(=O)N[C@@H](CS)C(=O)N[C@@H](Cc2ccccc2)C(=O)NC)cc1 [Example 180] | > 10 µM | 0.7 µM
18 | C[C@H](CS)NS(=O)(=O)c1ccc(Cc2ncc(C(F)(F)F)cc2Cl)s1 [Example 155] | > 10 µM | > 10 µM
19 | C[C@H](CSC(=O)c1cccs1)N(CCN1CCOCC1)S(=O)(=O)c1ccc(Sc2ccccc2)cc1 [Example 132] | > 10 µM | 0.047 µM
20 | CCCCOc1ccc(S(=O)(=O)N(CCN2CCCC2)[C@H](C)CS)cc1 [Example 47C, N-(2-Mercapto-1R-methylethyl)-N-[2-(1-pyrrolidino)ethyl]-4-(n-butoxy)benzenesulfonamide] | 4.83 µM | 0.00447 µM
21 | C[C@H](CS)NS(=O)(=O)c1ccc(/N=N/c2ccc(N(C)C)cc2)cc1 [Example 217] | > 10 µM | 0.0015 µM
22 | COc1ccc(S(=O)(=O)N(Cc2ccccc2)C(CS)Cc2ccccc2)cc1 (stereo not drawn) [Example 57, N-(2-Mercapto-1R,S-phenylmethyl)-N-phenylmethyl-4-methoxybenzenesulfonamide] | > 10 µM | 5 µM

The next lines start with the values.

Row | IC50 (recombinant human MMP-1) | IC50 (recombinant human MMP-13) | Molecule
23 | > 10 µM | > 10 µM | COc1ccc(S(=O)(=O)N(Cc2ccccc2)[C@H](CS)C(C)C)cc1 [Example 33D, N-[(1S-Mercaptomethyl)-2-methylpropyl]-4-methoxy-N-(phenylmethyl)benzenesulfonamide]
24 | > 10 µM | 0.17 µM | CC(=O)Nc1ccc(S(=O)(=O)N(C)[C@@H](CS)C(N)=O)cc1 [Example 203]
25 | > 10 µM | 2 µM | N-(2-Mercapto-1S-methylethyl)-N-(phenylmethyl)-4-methoxybenzenesulfonamide [Example 13C]
26 | 2 µM | 0.04 µM | COc1ccc(S(=O)(=O)N(Cc2ncc[nH]2)[C@H](C)CS)cc1 [Example 111]
27 | 7 µM | 0.245 µM | COc1ccc(S(=O)(=O)N[C@H](C)CS)cc1 [Example 16B, N-(2-Mercapto-1R-methylethyl)-4-methoxybenzenesulfonamide]
28 | 4.2 µM | 0.065 µM | CCCCCN(CCS)S(=O)(=O)c1ccc(OC)cc1 [Example 8, N-(2-Mercaptoethyl)-N-pentyl-4-methoxybenzenesulfonamide]
29 | 5 µM | 1 µM | C[C@H](CS)NS(=O)(=O)c1ccc(OC(F)(F)F)cc1 [Example 75, N-(2-mercapto-1R-methylethyl)-4-(trifluoromethoxy)-benzenesulfonamide]
30 | 9 µM | 0.007 µM | CCCCCc1ccc(S(=O)(=O)N(CCN2CCOCC2)[C@H](C)CS)cc1 [Example 54, N-(2-Mercapto-1R-methylethyl)-N-[2-(4-morpholino)ethyl]-4-(n-pentyl)benzenesulfonamide]
31 | > 0.1 µM | 0.0035 µM | CC(C)Oc1ccc(-c2ccc(S(=O)(=O)N(CCN3CCOCC3)[C@@H](CS)C(N)=O)cc2)cc1 [Example 126]
32 | 5.3 µM | 0.0011 µM | NC(=O)[C@H](CS)N(CCN1CCOCC1)S(=O)(=O)c1ccc(NC(=O)c2ccc(Br)cc2)cc1 [Example 222, N-(4-(4′-bromobenzoyl)amino)phenylsulfonyl-N-(4-(morpholinoethyl))-L-cysteine amide]
33 | 6 µM | 0.2 µM | COC(=O)[C@H](CSSC[C@H](NS(=O)(=O)c1ccc(OC)cc1)C(=O)OC)NS(=O)(=O)c1ccc(OC)cc1 [Example 58]
34 | 4 µM | 0.0027 µM | CCCCOc1ccc(S(=O)(=O)N(CCN2CCOCC2)[C@H](C)CS)cc1 [Example 107]
35 | 0.3 µM | 2.5 µM | C[C@H](CS)NS(=O)(=O)c1ccc(F)cc1 [Example 63, N-(2-mercapto-1R-methylethyl)-4-fluorobenzenesulfonamide]
36 | 1.07 µM | 0.0073 µM | C[C@H](CS)N(C)S(=O)(=O)c1ccc(-c2ccccn2)s1 [Example 156]
37 | 0.3 µM | 0.0175 µM | COc1ccc(S(=O)(=O)N(Cc2cccnc2)[C@H](C)CS)cc1 [Example 49, N-(2-Mercapto-1-R-methylethyl)-N-(3-pyridylmethyl)-4-methoxybenzenesulfonamide]
38 | 4 µM | 0.15 µM | COc1ccc(S(=O)(=O)N(Cc2ccsc2)[C@H](C)CS)cc1 [Example 112]
39 | 1.5 µM | 0.005 µM | CCCOc1ccc(S(=O)(=O)N(C)[C@H](C)CS)cc1 [Example 37C, N-(2-Mercapto-1R-methylethyl)-N-methyl-4-(n-propyloxy)benzenesulfonamide]
